This is an account of results in US20030234356A1, “Method and apparatus for the detection of noncovalent interactions by mass spectrometry-based diffusion measurements” (priority 2002, published 2003).

Entries after “also recorded” stand apart in the source; their conditions may differ.

One test has as its target T1, lysozyme (Gallus gallus, UniProt P00698).
T1 construct: purchased Sigma (St. Louis, Mo.)
In words: ESI-MS Taylor dispersion screen of a mixture of six sugars for noncovalent binding to lysozyme. Conditions: six sugars monitored simultaneously. The procedure:
(§1) Based on the theoretical considerations described above, we will now describe details of an apparatus that allows the measurement of dispersion profiles by ESI-MS or APCI-MS. A schematic diagram of the apparatus is shown generally at 10 in FIG. 2. The measurements described below were carried out by using a 3.013 m long Teflon laminar flow tube (Upchurch, Oak Harbor, Wash.) shown as LFT or 12 in FIG. 2. The inner diameter (i.d.) of this LFT was determined gravimetrically to be 258.2 μm. In order to measure a diffusion coefficient, a sharp initial boundary must be created between the carrier solution and the following analyte solution at the entrance of the flow tube (Equation 3). This was accomplished by using a valve mechanism shown in FIG. 2 as a “sliding block mechanism (SBM)” 14 developed by the inventors. The laminar flow tube (LFT) 12 is inserted into a Teflon block machined to accommodate a PEEK connector and ferrule (Upchurch, Oak Harbor, Wash.) so that the flow tube 12 extends through to the end of the block. Initially, the entrance to the flow tube 12 is aligned with an opening in a steel block into which a piece of PEEK tubing 16 (508 μm ID, length ≈0.5 m) is fitted, using another PEEK connector and ferrule. This second piece of tubing 16 is used as the inlet tube, forming a leak-proof connection between the inlet tube and the flow tube at the boundary between the steel and Teflon blocks.
An analyte reservoir 18 (shown as a syringe in FIG. 2 which also acts as a pump) connected to the inlet tube 16 can be used to fill the inlet tube 16 with analyte solution, and to pump this analyte solution through the LFT 12. Initially, however, a carrier solution reservoir (not shown) is connected to tube 16 for filling the laminar flow tube 12 with carrier solution. The analyte solution and carrier solution reservoirs are never connected to the laminar flow tube 16 at the same time. Subsequently, the Teflon block containing the flow tube is moved sideways, such that the two tubes 12 and 16 are no longer aligned and the entrance to the flow tube 12 is closed off by the steel block. The inlet tube 16 can now be filled with analyte solution from pump 18 (syringe S1) without disturbing the carrier solution in the flow tube 12. Then the Teflon block is returned to its original position, aligning the two tubes (12 and 16) and creating a sharp boundary between the analyte solution in the inlet tube and the carrier solution in the LFT 12. The i.d. of the inlet tube 16 was chosen to be larger than that of the flow tube 12 to ensure that the boundary between the two solutions would cover the entire cross-sectional area of the flow tube 12, even if the sliding block were slightly misaligned. […]

For the next test, the target named is T2, apo-myoglobin (Equus caballus, UniProt P68082).
T2 construct: purchased Sigma (St. Louis, Mo.)
In words: ESI-MS Taylor dispersion (diffusion) measurement of noncovalent heme-protein binding in myoglobin. Conditions: for noncovalent binding of heme to the protein: 24±1° C. How it is done:
as §1
An analyte reservoir 18 (shown as a syringe in FIG. 2 which also acts as a pump) connected to the inlet tube 16 can be used to fill the inlet tube 16 with analyte solution, and to pump this analyte solution through the LFT 12. Initially, however, a carrier solution reservoir (not shown) is connected to tube 16 for filling the laminar flow tube 12 with carrier solution. The analyte solution and carrier solution reservoirs are never connected to the laminar flow tube 16 at the same time. Subsequently, the Teflon block containing the flow tube is moved sideways, such that the two tubes 12 and 16 are no longer aligned and the entrance to the flow tube 12 is closed off by the steel block. The inlet tube 16 can now be filled with analyte solution from pump 18 (syringe S1) without disturbing the carrier solution in the flow tube 12. Then the Teflon block is returned to its original position, aligning the two tubes (12 and 16) and creating a sharp boundary between the analyte solution in the inlet tube and the carrier solution in the LFT 12. The i.d. of the inlet tube 16 was chosen to be larger than that of the flow tube 12 to ensure that the boundary between the two solutions would cover the entire cross-sectional area of the flow tube 12, even if the sliding block were slightly misaligned. The use of a commercially available HPLC injection valve with a sample loop of suitable size may serve the same purpose as the described sliding block mechanism.
For the four examples given below, the analyte solution from syringe S1 is pumped through the laminar flow tube by using a Harvard syringe pump (South Nattick, Mass.). The outlet of the flow tube 12 is connected to two fused silica capillaries 26 and 28 (i.d. 100 μm, o.d. 165 μm, Polymicro Technologies, Phoenix, Ariz.) at a mixer 30 located at the end of tube 12. The first of these capillaries 26 has a length of 5 cm and is connected to the ESI source of the mass spectrometer 22. For studies on myoglobin, the second capillary 28 was used to supplement the analyte near the end of the laminar flow tube 12 with a methanol/acetic acid (90:10 v/v) mixture from syringe S2 just before it reached the ESI ion source. This “make-up” solvent was delivered at a flow rate of 5 μL/min, for a total flow rate of 10 μL/min at the ion source. The residence time of the analyte solution in the final 5 cm capillary was only about 2 s and can therefore be neglected for the analysis (the value of l/{overscore (v)} is 1929 s). […]

[1] abbreviates: absence vs presence of lysozyme.
The mark [2] stands for this setting: denaturing conditions (50% acetonitrile, pH 10).
[3] abbreviates: native-like solvent conditions (no organic cosolvents, pH 10).
[4] abbreviates: semi-denaturing conditions (30% acetonitrile, pH 10).

T2 sequence (P68082 2-154 limits assumed): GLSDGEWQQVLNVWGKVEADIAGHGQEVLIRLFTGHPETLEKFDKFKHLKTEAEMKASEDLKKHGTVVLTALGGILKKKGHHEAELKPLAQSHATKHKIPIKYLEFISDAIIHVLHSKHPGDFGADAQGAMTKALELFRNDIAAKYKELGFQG
T1 sequence (P00698 19-147): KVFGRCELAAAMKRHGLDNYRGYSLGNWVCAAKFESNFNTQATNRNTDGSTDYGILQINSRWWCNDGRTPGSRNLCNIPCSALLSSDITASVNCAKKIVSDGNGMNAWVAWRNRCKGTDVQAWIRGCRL

In the case of `CC(=O)N[C@H]1[C@H](O[C@H]2[C@H](O)[C@@H](NC(C)=O)C(O)O[C@@H]2CO)O[C@H](CO)[C@@H](O[C@@H]2O[C@H](CO)[C@@H](O)[C@H](O)[C@H]2NC(C)=O)[C@@H]1O` (stereo partly shown) [chitotriose], the “change in dispersion profile when the protein was added” value on lysozyme (setting [1]) is on record as “distinct change”. Further, the “change of apparent diffusion coefficient upon addition of the protein” value at lysozyme (absence vs presence of lysozyme, average of about ten measurements) is recorded as “dramatic reduction; also recorded: significant change”. Further, the “noncovalent binding to lysozyme” value on lysozyme (without and with lysozyme) is recorded as “binds noncovalently to lysozyme”.

For the compound `C=CC1=C(C)c2cc3[n-]c(cc4[n-]c(cc5nc(cc1n2)C(C)=C5C=C)c(C)c4CCC(=O)O)c(CCC(=O)O)c3C.[Fe+2]` [heme], the “fitted diffusion coefficient of heme compared with that of the protein in myoglobin solution” value was “much larger diffusion coefficient” at apo-myoglobin (setting [2]), “agree closely with each other” at apo-myoglobin (setting [3]) and “almost identical” on apo-myoglobin (setting [4]). For the same compound, the “noncovalent binding of heme to the protein” value at apo-myoglobin (setting [2]) is recorded as “absent or extremely weak”; on apo-myoglobin (setting [3]) it was “noncovalently bound to the protein”; on apo-myoglobin (setting [4]), “still bound to each other”.

Regarding `C[C@H](O)[C@H](O)[C@@H](O)[C@@H](O)C=O` [rhamnose], the “change in dispersion profile when the protein was added” value at lysozyme (setting [1]) is given as “virtually no change”.
